According to publication PMC6667453, “Opportunistic complexes of E. coli L-asparaginases with citrate anions” (Scientific Reports, 2019):
Structures can show the parent of a compound that is named as a salt.

Legend:
Type in all cases: binding
[1] = molecular target: T1, EcAII, type II L-asparaginase from Escherichia coli (Escherichia coli, UniProt P00805, D112T/K184T); experiment: X-ray crystal structure; conditions: pH 5.0 (also pH 5.6, 6nx7; pH 6.2, 6nx8), 0.17 M citrate, 10 mM L-Asn, 293 K; non-covalent, one of two active sites (protomer B); stabilised by His6-tag of symmetry mate, called an artifact
T1 construct: gene ansB; Met-(His)6-EcAII, N-terminal tag kept; secreted from E. coli triple asparaginase knockout
T1 sequence (P00805 23-348 D112T/K184T): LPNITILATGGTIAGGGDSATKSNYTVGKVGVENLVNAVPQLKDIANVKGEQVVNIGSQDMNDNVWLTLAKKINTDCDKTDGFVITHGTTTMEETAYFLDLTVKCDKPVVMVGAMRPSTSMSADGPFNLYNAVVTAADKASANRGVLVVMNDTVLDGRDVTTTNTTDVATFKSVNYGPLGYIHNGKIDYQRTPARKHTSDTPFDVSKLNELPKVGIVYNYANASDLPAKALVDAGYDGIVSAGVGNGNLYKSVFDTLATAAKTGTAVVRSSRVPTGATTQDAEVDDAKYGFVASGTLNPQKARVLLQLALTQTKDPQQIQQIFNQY

[2] = molecular target: T2, EcAII, type II L-asparaginase from Escherichia coli (Escherichia coli, UniProt P00805); experiment: intact-protein LC/MS (electrospray); conditions: pH 4.0, 200 mM citrate; no L-Asp; covalent (addition of citrate minus water)
T2 construct: gene ansB; Met-(His)6-EcAII, N-terminal tag kept; secreted from E. coli triple asparaginase knockout
T2 sequence (P00805 23-348): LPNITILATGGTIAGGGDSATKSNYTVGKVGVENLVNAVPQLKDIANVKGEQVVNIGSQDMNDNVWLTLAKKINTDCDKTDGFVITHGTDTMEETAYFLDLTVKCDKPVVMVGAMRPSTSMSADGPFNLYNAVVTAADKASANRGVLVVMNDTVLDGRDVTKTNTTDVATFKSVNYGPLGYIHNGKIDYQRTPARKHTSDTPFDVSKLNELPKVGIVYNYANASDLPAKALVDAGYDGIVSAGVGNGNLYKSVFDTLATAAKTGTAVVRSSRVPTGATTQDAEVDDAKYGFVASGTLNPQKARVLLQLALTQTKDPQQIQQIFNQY

[3] = molecular target: T2, EcAII, type II L-asparaginase from Escherichia coli; experiment: X-ray crystal structure; conditions: pH 7.0, 0.17 M ammonium citrate, 17% PEG3350, 100 K; non-covalent, all four active sites
[4] = molecular target: T3, EcAI (AnsA), type I L-asparaginase from E. coli (Escherichia coli, UniProt P0A962); experiment: X-ray crystal structure, re-refined from deposited data (2p2n); conditions: pH about 4.0 (0.1 M citrate, 1 M NaCl); covalent, acyl-enzyme ester to Thr14 OG1 in active site; re-interpretation of ligand first modelled as L-Asp/L-Asn
T3 construct: four protomers (two dimers) in the asymmetric unit
T3 sequence (P0A962 1-338): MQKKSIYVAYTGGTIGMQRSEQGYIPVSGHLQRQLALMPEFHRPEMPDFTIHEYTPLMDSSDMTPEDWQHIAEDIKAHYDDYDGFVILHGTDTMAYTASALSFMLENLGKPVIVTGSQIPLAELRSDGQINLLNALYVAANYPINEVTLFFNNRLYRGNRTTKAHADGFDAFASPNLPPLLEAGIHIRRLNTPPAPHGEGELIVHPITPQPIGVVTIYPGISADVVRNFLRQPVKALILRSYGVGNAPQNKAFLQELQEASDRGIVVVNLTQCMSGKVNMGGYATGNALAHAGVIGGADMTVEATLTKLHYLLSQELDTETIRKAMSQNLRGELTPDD

Question: Which results are given for O=C(O)CC(O)(CC(=O)O)C(=O)O [CIT, citrate]?
Answer: X-ray crystal structure [1]: maps indicated clearly the presence of a citrate anion in this site; % abundance of adduct (+174.0) at 200 mM citrate [2]: 38.1%; X-ray crystal structure [3]: The shape of this peak could be unambiguously interpreted as a citrate anion; X-ray crystal structure, re-refined from deposited data (2p2n) [4]: substitution by citrate anions covalently linked to the side chain of Thr14
